Results from patent US20240174618A1, “SUBSTITUTED (2-HETEROARYLOXYPHENYL)SULFONATES, SALTS THEREOF AND THEIR USE AS HERBICIDAL AGENTS” (Bayer Aktiengesellschaft, priority 2021, published 2024).

Legend:
Format in all cases: in vivo
Poa annua (POAAN) [1] = assay: A. Herbicidal pre-emergence efficacy, POAAN
Summary of the method: (§1)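 Applied before emergence onto covering soil at rates of 1280 g/ha or less, using 600 L/ha spray water with 0.5% additive. Scoring: visual % efficacy after ~3 weeks, greenhouse.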

[2] = system: Echinochloa crus-galli (ECHCG); assay: B. Herbicidal post-emergence efficacy, ECHCG; details: rated visually after about 3 weeks
Summary of the method: (§2)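 Post-emergence greenhouse test: one-leaf-stage plants, compound (WP/EC, +0.5% additive, 600 L/ha water, ≤1280 g/ha) applied to green parts; % efficacy scored visually vs untreated after ~3 wk; 100% = plants died.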

Stellaria media (STEME) [3] = assay: B. Herbicidal post-emergence efficacy, STEME
Summary of the method: as §2

[4] = system: Digitaria sanguinalis (DIGSA); assay: A. Herbicidal pre-emergence efficacy, DIGSA; details: scored visually after about 3 weeks vs untreated controls
Summary of the method: as §1

Stellaria media (STEME) [5] = assay: A. Herbicidal pre-emergence efficacy, STEME
Summary of the method: as §1

[6] = system: Amaranthus retroflexus (AMARE); assay: A. Herbicidal pre-emergence efficacy, AMARE
Summary of the method: as §1

Setaria viridis (SETVI) = assay: A. Herbicidal pre-emergence efficacy, SETVI
Summary of the method: as §1

Poa annua (POAAN) [7] = assay: B. Herbicidal post-emergence efficacy, POAAN
Summary of the method: as §2

[8] = system: Abutilon theophrasti (ABUTH); assay: B. Herbicidal post-emergence efficacy, ABUTH; details: rated visually after about 3 weeks
Summary of the method: as §2

Kochia scoparia (KCHSC) = assay: B. Herbicidal post-emergence efficacy, KCHSC; details: 1280 g/ha
Summary of the method: as §2

Lolium rigidum (LOLRI) = assay: B. Herbicidal post-emergence efficacy, LOLRI; details: 1280 g/ha
Description: Seeds of mono- and dicotyledonous weed plants were placed in plastic pots in sandy loam soil (doubly sown with in each case one species of mono- or dicotyledonous weed plants per pot), covered with soil and cultivated in a greenhouse under controlled growth conditions. 2 to 3 weeks after sowing, the test plants were treated at the one-leaf stage. The compounds of the invention, formulated in the form of wettable powders (WP) or as emulsion concentrates (EC), were applied onto the green parts of the plants as aqueous suspension or emulsion with addition of 0.5% additive at a water application rate of 600 liters per hectare (converted). After the test plants had been kept in the greenhouse under optimum growth conditions for about 3 weeks, the activity of the preparations was rated visually in comparison to untreated controls.
For example, • 100% efficacy=plants have died, • 0% efficacy=like untreated control plants
Tables B1a to B12c below show the effects of selected inventive compounds of the general formula (I) according to table 1 on various harmful plants at an application rate corresponding to 1280 g/ha or less, which were obtained by the experimental procedure mentioned above.

Veronica persica (VERPE) = assay: B. Herbicidal post-emergence efficacy, VERPE
Summary of the method: as §2

[9] = system: Amaranthus retroflexus (AMARE); assay: B. Herbicidal post-emergence efficacy, AMARE
Summary of the method: as §2

Cc1cccc(Oc2ncc(Cl)cn2)c1OS(=O)(=O)CC1CC1(Cl)Cl (centres unmarked) [Example I-76]
Pre-emergence efficacy against POAAN (Poa annua (POAAN) [1]; dosage 320 g/ha): 90%
Pre-emergence efficacy against POAAN (Poa annua (POAAN) [1]; dosage 1280 g/ha): 90%
Post-emergence efficacy against ECHCG in % ([2]; 320 g/ha): 90%
Post-emergence efficacy against ECHCG in % ([2]; 1280 g/ha): 100%
Post-emergence efficacy against STEME (Stellaria media (STEME) [3]; 80 g/ha): 90%
Post-emergence efficacy against STEME (Stellaria media (STEME) [3]; 320 g/ha): 100%
Post-emergence efficacy against STEME (Stellaria media (STEME) [3]; 1280 g/ha): 100%
Pre-emergence efficacy against DIGSA ([4]; 320 g/ha): 90%
Pre-emergence efficacy against DIGSA ([4]; 1280 g/ha): 90%
Pre-emergence efficacy against STEME (Stellaria media (STEME) [5]; dosage 80 g/ha): 90%
Pre-emergence efficacy against STEME (Stellaria media (STEME) [5]; dosage 320 g/ha): 90%
Pre-emergence efficacy against STEME (Stellaria media (STEME) [5]; dosage 1280 g/ha): 100%
Pre-emergence efficacy against AMARE in % ([6]; 320 g/ha): 90%
Pre-emergence efficacy against AMARE in % ([6]; 1280 g/ha): 100%
Pre-emergence efficacy against SETVI (Setaria viridis (SETVI); dosage 320 g/ha): 100%
Pre-emergence efficacy against SETVI (Setaria viridis (SETVI); dosage 1280 g/ha): 100%
Post-emergence efficacy against POAAN (Poa annua (POAAN) [7]; 320 g/ha): 90%
Post-emergence efficacy against POAAN (Poa annua (POAAN) [7]; 1280 g/ha): 100%
Post-emergence efficacy against ABUTH in % ([8]; 80 g/ha): 90%
Post-emergence efficacy against ABUTH in % ([8]; 320 g/ha): 90%
Post-emergence efficacy against ABUTH in % ([8]; 1280 g/ha): 100%
Post-emergence efficacy against KCHSC (Kochia scoparia (KCHSC)): 90%
Post-emergence efficacy against LOLRI (Lolium rigidum (LOLRI)): 90%
Post-emergence efficacy against VERPE (Veronica persica (VERPE); 80 g/ha): 90%
Post-emergence efficacy against VERPE (Veronica persica (VERPE); 320 g/ha): 100%
Post-emergence efficacy against VERPE (Veronica persica (VERPE); 1280 g/ha): 100%
Post-emergence efficacy against AMARE ([9]; 80 g/ha): 90%
Post-emergence efficacy against AMARE ([9]; 320 g/ha): 100%
Post-emergence efficacy against AMARE ([9]; 1280 g/ha): 100%
